Measured values from patent US20120202794A1 (priority 2011, published 2012).

Assays:
[1] = Cell cytotoxicity assay (MTS), CC90 as reported in Table 1, cell line not stated; format: cell-based; conditions: human; MTS assay; 8 days incubation; cell line not given
How it was run: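 Compounds, serially diluted from 100 μM, were incubated 8 days at 37° C with Huh7, HepG2 or BxPC3 (2×10^3 cells/well) or CEM (5×10^3 cells/well). Viability was read by MTS, 2 h, absorbance 490 nm. CC90 (90% inhibition) was taken against untreated cells.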

HCV Replicon 1b = assay: HCV inhibition assay, HCV replicon 1b (Clone A or ET-lunet cells; RT-PCR or luciferase reporter); format: cell-based; conditions: Hepatitis C virus, 96 h, HCV replicon 1b; 4 days incubation; read-out: Replicon 1b potency EC90
How it was run: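 Clone A (1500/well) or ET-lunet (3000/well) replicon cells treated with serially diluted compounds (0.5% DMSO, no G418) for 4 days at 37 °C. HCV RNA measured by one-step RT-PCR normalized to rRNA (ΔΔCt) or by luciferase luminescence versus DMSO controls; EC50/EC90 by curve fitting.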

Structure (SMILES)	CC90 at 8 days [1] [µM]	EC90 (HCV Replicon 1b) [nM]
CC(C)C[C@H]1C(=O)N[C@@H](C(C)C)CN1C(=O)[C@@H]1C[C@H]1c1ccc(F)c(F)c1 [Compound 309, (3S,6S)-4-[(1R,2R)-2-(3,4-Difluoro-phenyl)-cyclopropanecarbonyl]-3-isobutyl-6-isopropyl-piperazin-2-one]	> 10	780
CC(C)C[C@H]1C(=O)N[C@@H](C2CCCC2)CN1C(=O)[C@@H]1C[C@H]1c1ccc(C(C)(C)C)cc1 [Compound 310, (3S,6S)-4-((1R,2R)-2-(4-(tert-butyl)phenyl)cyclopropanecarbonyl)-6-cyclopentyl-3-isobutylpiperazin-2-one]	> 10	950
CC(C)C[C@H]1C(=O)N[C@@H](C(C)C)CN1C(=O)[C@@H]1C[C@H]1c1ccc(C(C)(C)C)cc1 [Compound 311, (3S,6S)-4-((1R,2R)-2-(4-(tert-butyl)phenyl)cyclopropanecarbonyl)-3-isobutyl-6-isopropylpiperazin-2-one]	> 10	1860
CC(C)C[C@H]1C(=O)N[C@@H](c2ccccc2)CN1C(=O)[C@@H]1C[C@H]1c1ccc(C(C)(C)C)cc1 [Compound 312, (3S,6S)-4-((1R,2R)-2-(4-(tert-butyl)phenyl)cyclopropanecarbonyl)-3-isobutyl-6-phenylpiperazin-2-one]	> 10	1130
CCC[C@H]1CN(C(=O)c2cc(-c3ccc(Cl)cc3)no2)[C@@H](CC(C)C)C(=O)N1 [Compound 313, (3S,6S)-4-(3-(4-chlorophenyl)isoxazole-5-carbonyl)-3-isobutyl-6-propylpiperazin-2-one]	> 10	390
CC(C)C[C@H]1C(=O)N[C@@H](C2CCCC2)CN1C(=O)c1cc(-c2ccc(Cl)cc2)no1 [Compound 314, (3S,6S)-4-(3-(4-chlorophenyl)isoxazole-5-carbonyl)-6-cyclopentyl-3-isobutyl-piperazin-2-one]	> 10	510
CC(C)C[C@H]1C(=O)N[C@@H](C2CCCCC2)CN1C(=O)c1cc(-c2ccc(Cl)cc2)no1 [Compound 315, (3S,6S)-4-(3-(4-chlorophenyl)isoxazole-5-carbonyl)-6-cyclohexyl-3-isobutylpiperazin-2-one]	> 10	700
CC(C)C[C@H]1C(=O)N[C@@H](c2ccccc2)CN1C(=O)c1cc(-c2ccc(Cl)cc2)no1 [Compound 316, (3S,6S)-4-(3-(4-chlorophenyl)isoxazole-5-carbonyl)-3-isobutyl-6-phenylpiperazin-2-one]	> 10	280
CC(C)CC1=CN(C(=O)c2cc(-c3ccc(F)cc3)on2)[C@@H](CC(C)C)C(=O)N1 [Compound 317, (S)-4-(5-(4-Fluorophenyl)isoxazole-3-carbonyl)-3,6-diisobutyl-3,4-dihydro-pyrazin-2(1H)-one]	> 10	280
CC(C)C[C@H]1C(=O)N(C)[C@@H](c2ccccc2)CN1C(=O)c1cc(-c2ccc(F)cc2)on1 [Compound 321, (3S,6S)-4-(5-(4-fluorophenyl)isoxazole-3-carbonyl)-3-isobutyl-1-methyl-6-phenylpiperazin-2-one]	> 10	6450
CCN1C(=O)[C@H](CC(C)C)N(C(=O)c2cc(-c3ccc(F)cc3)on2)C[C@@H]1c1ccccc1 [Compound 322, (3S,6S)-1-ethyl-4-(5-(4-fluorophenyl)isoxazole-3-carbonyl)-3-isobutyl-6-phenylpiperazin-2-one]	> 10	> 10000
CCCN1C(=O)[C@H](CC(C)C)N(C(=O)c2cc(-c3ccc(F)cc3)on2)C[C@@H]1c1ccccc1 [Compound 323, (3S,6S)-4-(5-(4-fluorophenyl)isoxazole-3-carbonyl)-3-isobutyl-6-phenyl-1-propylpiperazin-2-one]	> 10	> 10000
CC(C)C[C@H]1C(=O)N[C@@H](C2CCCC2)CN1C(=O)[C@@H]1C[C@H]1c1ccc(F)cc1F [Compound 325, (3S,6S)-6-cyclopentyl-4-((1R,2R)-2-(2,4-difluorophenyl)cyclopropanecarbonyl)-3-isobutylpiperazin-2-one]	> 10	> 10000
CC(C)C[C@H]1C(=O)N[C@@H](C2CCCCC2)CN1C(=O)[C@@H]1C[C@H]1c1ccc(F)cc1F [Compound 326, (3S,6S)-6-cyclohexyl-4-((1R,2R)-2-(2,4-difluorophenyl)cyclopropanecarbonyl)-3-isobutylpiperazin-2-one]	> 10	> 10000
CC(C)C[C@H]1C(=O)N[C@@H](c2ccccc2)CN1C(=O)[C@@H]1C[C@H]1c1ccc(F)cc1F [Compound 327, (3S,6S)-4-[(1R,2R)-2-(2,4-difluoro-phenyl)-cyclopropanecarbonyl]-3-isobutyl-6-phenyl-piperazin-2-one]	> 10	7210
CC(C)C[C@H]1C(=O)N[C@@H](C2CCCCC2)CN1C(=O)[C@@H]1C[C@H]1c1ccc(C(C)(C)C)cc1 [Compound 328, (3S,6S)-4-((1R,2R)-2-(4-(tert-butyl)phenyl)cyclopropanecarbonyl)-6-cyclohexyl-3-isobutylpiperazin-2-one]	> 10	2430
CC(C)C[C@H]1CN(C(=O)[C@@H]2C[C@H]2c2ccc(Br)cc2)[C@@H](CC(C)C)C(=O)N1 [Compound 329, (3S,6S)-4-((1R,2R)-2-(4-bromophenyl)cyclopropanecarbonyl)-3,6-diisobutylpiperazin-2-one]	> 10	520
CCC[C@H]1CN(C(=O)[C@@H]2C[C@H]2c2ccc(Br)cc2)[C@@H](CC(C)C)C(=O)N1 [Compound 331, (3S,6S)-4-[(1R,2R)-2-(4-Bromo-phenyl)-cyclopropanecarbonyl]-3-isobutyl-6-propyl-piperazin-2-one]	> 10	560
CC(C)C[C@H]1C(=O)N[C@@H](c2ccccc2)CN1C(=O)[C@@H]1C[C@H]1c1ccc(Br)cc1 [Compound 333, (3S,6S)-4-[(1R,2R)-2-(4-bromo-phenyl)-cyclopropanecarbonyl]-3-isobutyl-6-phenyl-piperazin-2-one]	> 10	646
CCC[C@H]1CN(C(=O)[C@@H]2C[C@H]2c2ccc(C(C)(C)C)cc2)[C@@H](CC(C)C)C(=O)N1 [Compound 334, (3S,6S)-4-((1R,2R)-2-(4-(tert-butyl)phenyl)cyclopropanecarbonyl)-3-isobutyl-6-propyl-pylpiperazin-2-one]	> 10	900
O=C1N[C@@H](c2ccccc2)CN(C(=O)c2cc(-c3ccc(F)cc3)on2)[C@H]1CC1CC1 [Compound 336, (3S,6S)-3-(cyclopropylmethyl)-4-(5-(4-fluorophenyl)isoxazole-3-carbonyl)-6-phenylpiperazin-2-one]	> 10	360
O=C1N[C@@H](c2ccccc2)CN(C(=O)[C@@H]2C[C@H]2c2ccccc2)[C@H]1CC1CC1 [Compound 338, (3S,6S)-3-(cyclopropylmethyl)-6-phenyl-4-((1R,2R)-2-phenylcyclopropanecarbonyl)-piperazin-2-one]	> 10	5070
CC[C@@H](C)[C@H]1C(=O)N[C@@H](c2ccccc2)CN1C(=O)c1cc(-c2ccc(F)cc2)on1 [Compound 339, (3S,6S)-3-((R)-sec-butyl)-4-(5-(4-fluorophenyl)isoxazole-3-carbonyl)-6-phenylpiperazin-2-one]	> 10	800
CC[C@@H](C)[C@H]1C(=O)N[C@@H](c2ccccc2)CN1C(=O)[C@@H]1C[C@H]1c1ccccc1 [Compound 341, (3S,6S)-3-((R)-sec-butyl)-6-phenyl-4-((1R,2R)-2-phenylcyclopropanecarbonyl)-piperazin-2-one]	> 10	2540
CC(C)(C)C[C@H]1C(=O)N[C@@H](c2ccccc2)CN1C(=O)c1cc(-c2ccc(F)cc2)on1 [Compound 342, (3S,6S)-4-(5-(4-fluorophenyl)isoxazole-3-carbonyl)-3-neopentyl-6-phenylpiperazin-2-one]	> 10	200
CC(C)(C)C[C@H]1C(=O)N[C@@H](c2ccccc2)CN1C(=O)[C@@H]1C[C@H]1c1ccccc1 [Compound 344, (3S,6S)-3-neopentyl-6-phenyl-4-((1R,2R)-2-phenylcyclopropanecarbonyl)piperazin-2-one]	> 10	1000
CC(C)C[C@H]1C(=O)N[C@@H](c2ccc(F)cc2)CN1C(=O)c1cc(-c2ccc(F)cc2)on1 [Compound 345, (3S,6S)-6-(4-fluorophenyl)-4-(5-(4-fluorophenyl)isoxazole-3-carbonyl)-3-isobutyl-piperazin-2-one]	> 10	650
CC(C)C[C@H]1C(=O)N[C@@H](c2ccc(F)cc2)CN1C(=O)[C@@H]1C[C@H]1c1ccccc1 [Compound 347, (3S,6S)-6-(4-fluorophenyl)-3-isobutyl-4-((1R,2R)-2-phenylcyclopropanecarbonyl)-piperazin-2-one]	> 10	2050
Cc1ccc([C@H]2CN(C(=O)c3cc(-c4ccc(F)cc4)on3)[C@@H](CC(C)C)C(=O)N2)cc1 [Compound 348, (3S,6S)-4-(5-(4-fluorophenyl)isoxazole-3-carbonyl)-3-isobutyl-6-(p-tolyl)piperazin-2-one]	> 10	1800
CC(C)C[C@H]1CN(C(=O)c2cn(-c3ccc(Cl)cc3)nn2)[C@@H](CC(C)C)C(=O)N1 [Compound 350, (3S,6S)-4-(1-(4-chlorophenyl)-1H-1,2,3-triazole-4-carbonyl)-3,6-diisobutylpiperazin-2-one]	> 10	1960
